Results on 23 molecules are retold here after patent publication US10894788B2, “Inhibitors of cyclin-dependent kinases” (Kinnate Biopharma Inc., priority 2018, dated 2021).

In this experiment the target is CDK12 wt/CycK (Homo sapiens (Human), UniProt Q9NYV4). The experiment can be described thus: Radiometric protein kinase assay (33PanQinase Activity Assay), Assay Condition A (thiol containing conditions). Format: biochemical. On the procedure: Example 1—Assay Condition A (Thiol Containing Conditions)
CDK12 wt/CycK, sequence (Q9NYV4 whole entry): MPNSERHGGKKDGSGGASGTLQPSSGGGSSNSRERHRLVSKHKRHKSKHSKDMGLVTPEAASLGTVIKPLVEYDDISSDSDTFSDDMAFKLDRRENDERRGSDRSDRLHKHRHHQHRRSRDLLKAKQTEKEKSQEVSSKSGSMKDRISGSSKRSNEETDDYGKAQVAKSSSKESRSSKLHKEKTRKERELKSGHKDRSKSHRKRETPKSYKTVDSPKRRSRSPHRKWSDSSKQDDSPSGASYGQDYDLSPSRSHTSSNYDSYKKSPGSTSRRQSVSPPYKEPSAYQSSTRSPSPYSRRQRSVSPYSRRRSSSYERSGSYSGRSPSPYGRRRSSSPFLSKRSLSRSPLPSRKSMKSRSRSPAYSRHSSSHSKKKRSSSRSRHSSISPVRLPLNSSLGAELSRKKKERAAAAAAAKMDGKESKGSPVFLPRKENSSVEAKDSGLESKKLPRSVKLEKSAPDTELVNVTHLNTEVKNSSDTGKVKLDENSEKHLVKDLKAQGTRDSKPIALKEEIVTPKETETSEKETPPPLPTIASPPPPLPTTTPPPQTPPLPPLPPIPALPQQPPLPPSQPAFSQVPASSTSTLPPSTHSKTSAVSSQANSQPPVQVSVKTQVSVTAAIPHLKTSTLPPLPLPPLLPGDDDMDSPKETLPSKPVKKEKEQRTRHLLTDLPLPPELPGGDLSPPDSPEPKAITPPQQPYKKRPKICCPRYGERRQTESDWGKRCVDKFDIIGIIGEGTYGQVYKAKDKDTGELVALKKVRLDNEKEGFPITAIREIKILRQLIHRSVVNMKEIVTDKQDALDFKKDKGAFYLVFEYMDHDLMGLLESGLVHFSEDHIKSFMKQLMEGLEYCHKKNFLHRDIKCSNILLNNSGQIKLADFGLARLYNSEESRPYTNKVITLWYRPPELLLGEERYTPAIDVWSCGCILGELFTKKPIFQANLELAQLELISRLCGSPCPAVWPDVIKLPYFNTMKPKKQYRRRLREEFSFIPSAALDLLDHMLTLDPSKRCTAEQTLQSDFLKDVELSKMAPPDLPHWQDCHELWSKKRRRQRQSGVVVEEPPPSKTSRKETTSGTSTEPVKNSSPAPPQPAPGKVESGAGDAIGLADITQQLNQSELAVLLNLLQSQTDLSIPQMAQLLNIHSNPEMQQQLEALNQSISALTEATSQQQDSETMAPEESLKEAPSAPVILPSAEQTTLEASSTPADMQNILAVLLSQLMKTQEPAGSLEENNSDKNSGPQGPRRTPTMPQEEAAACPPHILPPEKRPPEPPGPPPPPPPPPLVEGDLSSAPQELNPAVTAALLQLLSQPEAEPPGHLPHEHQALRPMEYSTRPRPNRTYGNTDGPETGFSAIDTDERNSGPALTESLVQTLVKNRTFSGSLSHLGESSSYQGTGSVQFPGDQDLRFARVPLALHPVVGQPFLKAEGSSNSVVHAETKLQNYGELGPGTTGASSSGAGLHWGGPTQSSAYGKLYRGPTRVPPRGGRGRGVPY
CDK12 wt/CycK, sequence (O75909 whole entry partner): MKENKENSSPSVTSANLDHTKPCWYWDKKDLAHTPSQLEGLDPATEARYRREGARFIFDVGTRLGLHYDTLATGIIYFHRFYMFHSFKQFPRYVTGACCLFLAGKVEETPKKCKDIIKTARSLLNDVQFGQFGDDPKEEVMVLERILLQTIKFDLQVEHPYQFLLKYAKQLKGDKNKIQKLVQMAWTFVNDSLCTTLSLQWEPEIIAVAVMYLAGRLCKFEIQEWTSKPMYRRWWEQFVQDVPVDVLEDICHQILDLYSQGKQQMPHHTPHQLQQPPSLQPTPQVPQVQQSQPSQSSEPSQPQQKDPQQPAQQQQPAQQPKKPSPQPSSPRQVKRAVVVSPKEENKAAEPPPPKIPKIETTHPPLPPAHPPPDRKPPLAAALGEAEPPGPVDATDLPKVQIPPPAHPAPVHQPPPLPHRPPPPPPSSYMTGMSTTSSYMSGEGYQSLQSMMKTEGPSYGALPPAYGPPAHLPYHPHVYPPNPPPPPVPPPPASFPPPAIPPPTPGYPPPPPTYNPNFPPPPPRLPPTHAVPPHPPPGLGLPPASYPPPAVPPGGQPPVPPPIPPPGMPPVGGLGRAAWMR
Objective: The IC50 profile of test compounds was determined using three protein kinases.
Test compounds: The compounds were provided as pre-weighed powders in vials. The compounds were dissolved to 1×10^−02M by adding DMSO. 100 μl of each of the resulting stock solutions were transferred into column 2 of four 96 well “master plates”.
Prior to testing, the 1×10^−02M stock solutions in column 2 of the master plates were subjected to a serial, semi-logarithmic dilution using 100% DMSO as a solvent. […] Column 1 and 7 were filled with 100% DMSO as controls. Subsequently, 2×10 μl from each well of the serial diluted copy plates were aliquoted with a 96 channel pipettor into two identical sets of “compound dilution plates”.
In the process, 90 μl H2O were added to each well of a set of compound dilution plates. To minimize potential precipitation, the H2O was added to each plate only a few minutes before the transfer of the compound solutions into the assay plates. Each plate was shaken thoroughly, resulting in a “compound dilution plate/10% DMSO”.
For the assays, 5 μl solution from each well of the compound dilution plates/10% DMSO were transferred into the assay plates. The final volume of the assay was 50 μl. All compounds were tested at 10 final assay concentrations in the range from 1×10^−04M to 3×10^−09M, in singlicate. The final DMSO concentration in the reaction cocktails was 1% in all cases.
Recombinant protein kinases: All protein kinases were expressed in Sf9 insect cells or in E. coli as recombinant GST-fusion proteins or His-tagged proteins, either as full-length or enzymatically active fragments. All kinases were produced from human cDNAs and purified by either GSH-affinity chromatography or immobilized metal. Affinity tags were removed from a number of kinases during purification. The purity of the protein kinases was examined by SDS-PAGE/Coomassie staining, the identity was checked by mass spectroscopy.
Protein kinase assay: A radiometric protein kinase assay (^33PanQinase® Activity Assay) was used for measuring the kinase activity of the three protein kinases. All kinase assays were performed in 96-well FlashPlates™ from PerkinElmer (Boston, Mass., USA) in a 50 μl reaction volume. The reaction cocktail was pipetted in four steps in the following order: • 20 μl of assay buffer (standard buffer) • 5 μl of ATP solution (in H2O) • 5 μl of test compound (in 10% DMSO) • 20 μl enzyme/substrate mix
The following amounts of enzyme and substrate were used per well:
The reaction cocktails were incubated at 30° C. for 60 minutes. The reaction was stopped with 50 μl of 2% (v/v) H3PO4, plates were aspirated and washed two times with 200 μl 0.9% (w/v) NaCl. Incorporation of ^33Pi was determined with a microplate scintillation counter (Microbeta, Wallac). All assays were performed with a BeckmanCoulter/SAGIAN™ Core System.
Evaluation of raw data: The median value of the counts in column 1 (n=8) of each assay plate was defined as “low control”. This value reflects unspecific binding of radioactivity to the plate in the absence of a protein kinase but in the presence of the substrate. The median value of the counts in column 7 of each assay plate (n=8) was taken as the “high control”, i.e. full activity in the absence of any inhibitor. The difference between high and low control was taken as 100% activity.
As part of the data evaluation the low control value from a particular plate was subtracted from the high control value as well as from all 80 “compound values” of the corresponding plate. The residual activity (in %) for each well of a particular plate was calculated by using the following formula: Res. Activity (%)=100×[(cpm of compound−low control)/(high control−low control)]
The residual activities for each concentration and the compound IC50 values were calculated using Quattro Workflow V3.1.1 (Quattro Research GmbH, Munich, Germany).

Where [1] appears, read: thiol containing conditions (1.2 mM DTT), ATP 0.3 μM, read-out: CDK12 IC50 Condition A.

Where two headings read alike, the source gives them in different places.

Consider `[2H]c1nc(N[C@@H]2CCN(C(=O)c3ccc(NC(=O)C=C)cc3)C2)nc(NC)c1Cl` [Example 111, (R)—N-(4-(3-((5-chloro-4-deutero-6-(methylamino)pyrimidin-2-yl)amino)pyrrolidine-1-carbonyl)phenyl)acrylamide], for which the IC50 under setting [1] is under 100 nM.
Take `C=CC(=O)Nc1ccc(C(=O)N2CC[C@@H](Nc3ncc(Cl)cn3)C2)cc1OCCN(C)C` [Example 112, (R)—N-(4-(3-((5-chloropyrimidin-2-yl)amino)pyrrolidine-1-carbonyl)-2-(2-(dimethylamino)ethoxy)phenyl)acrylamide]: the 50% inhibitory concentration (IC50) was 100 to 1000 nM.
On to `[2H]C([2H])([2H])Oc1nc(N[C@@H]2CCN(C(=O)c3ccc(NC(=O)/C=C/CN(C)C)cc3)C2)ncc1Cl` [Example 114, (R,E)-N-(4-(3-((5-chloro-4-(trideuteromethoxy)pyrimidin-2-yl)amino)pyrrolidine-1-carbonyl)phenyl)-4-(dimethylamino)but-2-enamide], for which the IC50 under setting [1] was 100 to 1000 nM.
For `COc1nc(N[C@@H]2CCN(C(=O)c3ccc(NC(=O)/C=C/CN(C)C)cc3)C2)ncc1Cl` [Example 115, (R,E)-N-(4-(3-((5-chloro-4-methoxypyrimidin-2-yl)amino)pyrrolidine-1-carbonyl)phenyl)-4-(dimethylamino)but-2-enamide], under setting [1], the IC50 is 100 to 1000 nM.
With `O=C(c1cccc(N2C(=O)C=CC2=O)c1)N1CC[C@@H](Nc2ncc(Cl)cn2)C1` [Example 116, (R)-1-(3-(3-((5-chloropyrimidin-2-yl)amino)pyrrolidine-1-carbonyl)phenyl)-1H-pyrrole-2,5-dionefuran-2,5-dione], the IC50 under setting [1] fell in the range of 1000 to 10000 nM.
Turning to `COc1nc(N[C@@H]2CCN(C(=O)c3ccc(NC(=O)/C=C/CN(C)C)c(C)c3)C2)ncc1Cl` [Example 117, (R,E)-N-(4-(3-((5-chloro-4-methoxypyrimidin-2-yl)amino)pyrrolidine-1-carbonyl)-2-methylphenyl)-4-(dimethylamino)but-2-enamide], the IC50 under setting [1] was in the range of 100 to 1000 nM.
As for `C=CC(=O)Nc1ccc(C(=O)N2CC[C@@H](Nc3ncc(C(F)(F)F)c(N(C)C)n3)C2)cc1` [Example 118, (R)—N-(4-(3-((4-(dimethylamino)-5-(trifluoromethyl)pyrimidin-2-yl)amino)pyrrolidine-1-carbonyl)phenyl)acrylamide], under setting [1], the IC50 lay within 10000 to 30000 nM.
Turning to `C=CC(=O)Nc1ccc(C(=O)N2CC[C@@H](Nc3ncc(Cl)c(OCC)n3)C2)cc1N1CCN(C)CC1` [Example 119, (R)—N-(4-(3-((5-chloro-4-ethoxypyrimidin-2-yl)amino)pyrrolidine-1-carbonyl)-2-(4-methylpiperazin-1-yl)phenyl)acrylamide], the IC50 under setting [1] lay within 100 to 1000 nM.
Still for that read-out and setting: the result for `C=CC(=O)Nc1ccc(C(=O)N2CC[C@@H](Nc3ncc(C(F)(F)F)c(NC)n3)C2)cc1` [Example 120, (R)—N-(4-(3-((4-(methylamino)-5-(trifluoromethyl)pyrimidin-2-yl)amino)pyrrolidine-1-carbonyl)phenyl)acrylamide] reads under 100 nM; that for `C=CC(=O)Nc1ccc(C(=O)N2CC[C@@H](Nc3ncc(Cl)c(OCCOCC)n3)C2)cc1N1CCN(C)CC1` [Example 123, (R)—N-(4-(3-((5-chloro-4-(2-ethoxyethoxy)pyrimidin-2-yl)amino)pyrrolidine-1-carbonyl)-2-(4-methylpiperazin-1-yl)phenyl)acrylamide], 100 to 1000 nM; that for `C#CC(=O)Nc1ccc(C(=O)N2CC[C@@H](Nc3ncc(Cl)c(OC)n3)C2)cc1` [Example 124, (R)—N-(4-(3-((5-chloro-4-methoxypyrimidin-2-yl)amino)pyrrolidine-1-carbonyl)phenyl)propiolamide], under 100 nM.
Regarding `C#CC(=O)Nc1ccc(C(=O)N2CC[C@@H](Nc3ncc(Cl)cn3)C2)cc1` [Example 125, (R)—N-(4-(3-((5-chloropyrimidin-2-yl)amino)pyrrolidine-1-carbonyl)phenyl)propiolamide], the concentration for half-maximal inhibition (IC50) under setting [1] was under 100 nM.
For `C=CC(=O)Nc1ccc(C(=O)N2CC[C@@H](Nc3ncc(Cl)cn3)C2)cc1N1CCC(N(C)C)C1` (stereo partly drawn) [Example 127, N-(4-((R)-3-((5-chloropyrimidin-2-yl)amino)pyrrolidine-1-carbonyl)-2-(3-(dimethylamino)pyrrolidin-1-yl)phenyl)acrylamide], the IC50 under setting [1] is 100 to 1000 nM.
On to `[2H]C([2H])([2H])Oc1nc(N[C@@H]2CCN(C(=O)c3cccc(N4C(=O)C=CC4=O)c3)C2)ncc1Cl` [Example 128, (R)-1-(3-(3-((5-chloro-4-(trideuteriomethoxy)pyrimidin-2-yl)amino)pyrrolidine-1-carbonyl)phenyl)-1H-pyrrole-2,5-dione], for which, under setting [1], the 50% inhibitory concentration (IC50) is 1000 to 10000 nM.
For `C=CC(=O)N1CCc2ccc(C(=O)N3CC[C@@H](Nc4ncc(Cl)cn4)C3)cc2C1` [Example 130, (R)-1-(7-(3-((5-chloropyrimidin-2-yl)amino)pyrrolidine-1-carbonyl)-3,4-dihydroisoquinolin-2(1H)-yl)prop-2-en-1-one], the IC50 under setting [1] lay in the range of 100 to 1000 nM.
Same read-out and setting: the value for `C/C=C/C(=O)Nc1ccc(C(=O)N2CC[C@@H](Nc3ncc(Cl)cn3)C2)cc1` [Example 131, (R,E)-N-(4-(3-((5-chloropyrimidin-2-yl)amino)pyrrolidine-1-carbonyl)phenyl)but-2-enamide] was 100 to 1000 nM.
Take `C=CC(=O)N1CCc2cc(C(=O)N3CC[C@@H](Nc4ncc(Cl)cn4)C3)ccc2C1` [Example 132, (R)-1-(6-(3-((5-chloropyrimidin-2-yl)amino)pyrrolidine-1-carbonyl)-3,4-dihydroisoquinolin-2(1H)-yl)prop-2-en-1-one]: the 50% inhibitory concentration (IC50) under setting [1] is 1000 to 10000 nM.
On the same count and under the same terms, the result for `N#CCC(=O)Nc1ccc(C(=O)N2CC[C@@H](Nc3ncc(Cl)cn3)C2)cc1` [Example 133, (R)—N-(4-(3-((5-chloropyrimidin-2-yl)amino)pyrrolidine-1-carbonyl)phenyl)-2-cyanoacetamide] reads 100 to 1000 nM; that for `CN(C)/C=C(\C#N)C(=O)Nc1ccc(C(=O)N2CC[C@@H](Nc3ncc(Cl)cn3)C2)cc1` [Example 134, (R)—N-(4-(3-((5-chloropyrimidin-2-yl)amino)pyrrolidine-1-carbonyl)phenyl)-2-cyano-3-(dimethylamino)acrylamide], 100 to 1000 nM.
Same read-out and setting: the result for `CN(C)C=C(C#N)C(=O)Nc1cccc(C(=O)N2CC[C@@H](Nc3ncc(Cl)cn3)C2)c1` [Example 135, (R)—N-(3-(3-((5-chloropyrimidin-2-yl)amino)pyrrolidine-1-carbonyl)phenyl)-2-cyano-3-(dimethylamino)acrylamide] reads 1000 to 10000 nM.
Regarding `C=CC(=O)N1CCc2ccc(C(=O)N3CC[C@@H](Nc4ncc(Cl)cn4)C3)cc21` [Example 136, (R)-1-(6-(3-((5-chloropyrimidin-2-yl)amino)pyrrolidine-1-carbonyl)indolin-1-yl)prop-2-en-1-one], under setting [1], the IC50 was 100 to 1000 nM.
The same measure, in the same setting: the result for `C=CC(=O)Nc1ccc(C(=O)N2CC[C@@H](Nc3ncc(Cl)c(OCCO)n3)C2)cc1` [Example 137, (R)—N-(4-(3-((5-chloro-4-(2-hydroxyethoxy)pyrimidin-2-yl)amino)pyrrolidine-1-carbonyl)phenyl)acrylamide] reads under 100 nM; that for `[2H]c1nc(N[C@@H]2CCN(C(=O)c3ccc(NC(=O)C=C)cc3)C2)nc(OC([2H])([2H])[2H])c1Cl` [Example 138, (R)—N-(4-(3-((5-chloro-4-deutero-6-(trideuteromethoxy)pyrimidin-2-yl)amino)pyrrolidine-1-carbonyl)phenyl)acrylamide], under 100 nM.
